Consider 78 molecules from the METLIN SMRT retention time set (Domingo-Almenara et al. 2019).

The nature of this series: gradient 5% acetonitrile 3 min, to 50% in 2 min, to 85% in 15 min, held 3 min, 100 µL/min. To be noted: column: Zorbax Extend-C18 2.1 x 50 mm; eluents: water / acetonitrile, 0.1% formic acid. In short, it runs like this:
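Pure standards were run in mixtures of ~100 molecules by HPLC coupled to a quadrupole time-of-flight mass spectrometer. The column was a Zorbax Extend-C18 (2.1 × 50 mm, 1.8 μm) at 100 μL/min, with water and acetonitrile each containing 0.1% formic acid, in positive and negative ionization mode. Dead and dwell volumes were 40 μL and 900 μL. Retention time was taken from computationally picked adduct peaks, each manually inspected, with data collected over 3 months.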
Molecule `O=C(NCCCN1CCOCC1)c1ccc2c(c1)NC(=O)C1CCCCN21` (stereo not drawn) returned an RP-LC retention time of 582 s.
On to `CCOC(=O)Cc1csc(NC(=O)c2cc3cc([N+](=O)[O-])ccc3s2)n1`, for which the RP-LC retention time was determined as 925 s.
To `Cn1nc(C(=O)N2CCCCC2)c2c1CCN(C(=O)CCC(=O)NCCN1CCCC1)C2` belongs 578 s; to `CC(C)Cn1c(=O)c(N2CCN(C(=O)NCc3ccccc3)CC2)nc2ccncc21`, 572 s; to `Cc1ccc(CNC(=O)C2(C)CCN(S(=O)(=O)c3ccc(C4CCCCC4)cc3)CC2)cc1`, 1270 s.
`CC(C)C(=O)NCCn1c(=O)n(Cc2ccccc2)c2cccnc21` displayed an RP-LC retention time of 714 s.
Turning to `COCCNC(=O)c1ccccc1-c1ocnc1C(=O)OC(C)C`, the RP-LC retention time was 676 s.
`Cc1cn2c(CCC(=O)NCCn3nc(-c4ccco4)ccc3=O)csc2n1` had an RP-LC retention time of 539 s.
To `Cc1ccnc(Nc2nc(-c3ccc(C)cc3C)cs2)c1` belongs 859 s; to `CC[C@H](NC(=O)c1c(C)c(-c2ccccc2)nc2ccccc12)c1ccccc1`, 1060 s.
Consider `Cc1ccc(S(=O)(=O)N2C(=O)CCC2C(=O)NCc2nc(-c3cccc(C)c3)no2)cc1` (stereo not drawn), for which the RP-LC retention time was determined as 910 s.
`Cc1ccccc1-c1nnc(CSc2nnc(NC(=O)C3CC3)s2)o1` gave an RP-LC retention time of 822 s.
The molecule `Cc1ccc(C)c(NC(=O)N2CCCC2c2nc(-c3ccc(F)cc3F)no2)c1` (stereo not drawn) showed an RP-LC retention time of 1010 s.
For the molecule `COc1ccc(-c2nc3ncccn3c2Nc2cc(C)ccc2C)cc1`, the RP-LC retention time was 792 s.
`CC(C)C(=O)Nc1ccc(C2(C(=O)NCc3ccccn3)CCC2)cc1` returned an RP-LC retention time of 611 s.
For the molecule `COc1ccccc1N1CCN(c2ccc3cc(S(=O)(=O)N4CCCCC4)ccc3n2)CC1`, the RP-LC retention time was 987 s.
Turning to `CCn1cc(C(=O)NCc2ccc(SC)cc2)c(=O)c2ccc(C)nc21`, the RP-LC retention time was 997 s.
In turn, `O=S(=O)(c1ccc(-c2nnc(C3CCC3)o2)o1)N1CCOCC1` gave an RP-LC retention time of 780 s.
`CCCNC(=O)C1CCN(c2ccc(SCC(=O)NCc3ccc(C)cc3)nn2)CC1` had an RP-LC retention time of 656 s.
Molecule `Cc1nc(-c2ccc(C(=O)NCc3cccnc3)cc2)cs1` had an RP-LC retention time of 612 s.
`COc1ccc(-c2nnc(Cc3nc(-c4cccs4)no3)o2)cc1` came in with an RP-LC retention time of 913 s.
As for `COc1cccc(NC(=O)c2sc(-c3cn(C)c4ncccc34)nc2C)c1`, the figure is 927 s; as for `O=C(c1ccc2c(c1)OCO2)N1CCC2(CC1)NC(=O)N(Cc1cccc(Cl)c1)C2=O`, 840 s.
`CC(NC(=O)C1=CCN(Cc2ccc(F)cc2)CC1)c1ccccc1` (stereo not drawn): the RP-LC retention time came to 640 s.
For the molecule `Cc1cc(C)n(Cc2ccc(C(=O)N3CCCN(c4cc(=O)n(C(C)C)c(=O)n4C(C)C)CC3)o2)n1`, the RP-LC retention time was determined as 768 s.
As to `CC(=O)Nc1onc(C)c1-c1ccc(C)c(S(=O)(=O)Nc2ccc(F)cc2C)c1`, the RP-LC retention time was determined as 806 s.
As for `CN(C)c1ccc(-c2nc3cnccn3c2Nc2cccc(C(F)(F)F)c2)cc1`, the RP-LC retention time was found to be 887 s.
To `c1cc2nnc(C3CC3)n2nc1N1CCCC1` belongs 775 s; to `Cc1nnc(CNC(=O)C(=O)Nc2ccc(Cl)cn2)o1`, 628 s.
In turn, `O=C1COc2cc(Cl)ccc2N1Cc1nc(-c2ccc3c(c2)OCO3)no1` displayed an RP-LC retention time of 1070 s.
`COc1ncc(C(=O)NCc2ccc(OC)c(OC)c2)cn1` came in with an RP-LC retention time of 638 s.
Turning to `COc1ccc(S(=O)(=O)Nc2nc(C(=O)Nc3cccc(Cl)c3)cs2)cc1`, the RP-LC retention time was 844 s.
As to `CCOc1ccccc1CNS(=O)(=O)c1ccc2c(c1)CCCC(=O)N2`, the RP-LC retention time worked out at 761 s.
On to `CCC(C(=O)NCCCN1CCN(CC)CC1)n1nc(C)c2sc3ccccc3c2c1=O` (stereo not drawn), for which the RP-LC retention time turned out to be 624 s.
In the case of `CC(C)CN1Cc2ccccc2-n2ccnc2C12CCN(C(=O)c1ccccn1)CC2`, the RP-LC retention time came out at 631 s.
As for `COc1ccccc1CNc1ccc(-c2nc(-c3ccc(F)cc3)no2)cn1`, the RP-LC retention time came to 1220 s.
Molecule `Fc1cccc(CN2CCO[C@@H](COc3ccccn3)[C@@H]2c2ccccc2)c1` showed an RP-LC retention time of 898 s.
With `C#CCOCC1CCN(C(=O)c2cc(-c3cccs3)[nH]n2)CC1`, the RP-LC retention time was found to be 734 s.
As for `Cc1nn(CC(=O)N2CCN(C(C)C)CC2)c(=O)c2nc(-c3ccccc3)sc12`, the figure is 620 s.
Regarding `CCc1nc(NCc2cccnc2)ncc1C(=O)O`, the RP-LC retention time was 560 s.
In turn, `COc1ccc(NC(=O)C(C)C2CCN(C(=O)Nc3ccc(Cl)cc3)CC2)c(OC)c1` (stereo not drawn) had an RP-LC retention time of 898 s.
Consider `COc1ccc(-c2csc(C)n2)cc1S(=O)(=O)N(C)c1ccc(C)cc1`, for which the RP-LC retention time came to 1040 s.
Molecule `CC(C)OC(=O)Cn1c(C2CC(=O)N(Cc3ccccc3)C2)nc2ccccc21` (stereo not drawn) showed an RP-LC retention time of 799 s.
As for `Cc1cc(C)cc(NC(=O)N2CCC(n3cnc4c(C)cccc4c3=O)CC2)c1`, the figure is 911 s; as for `CCOc1ccc(CCNC(=O)C2CCCN2C(=O)OCc2ccccc2)cc1OCC` (stereo not drawn), 890 s; as for `COc1ccc(-c2noc(C3(NC(=O)c4ccc(F)c(Cl)c4)CCCCC3)n2)cc1`, 685 s.
In the case of `COCCNC(=O)C1CCN(c2nccnc2Sc2cccc(C)c2)CC1`, the RP-LC retention time turned out to be 826 s.
To `Cc1cccc(C(=O)Nc2c(C(=O)N3CCN(c4ccccn4)CC3)[nH]c3ccccc23)c1` belongs 613 s; to `CCS(=O)(=O)NCc1cccnc1Oc1ccccc1`, 788 s; to `Cc1nn(CC(=O)NCCN2CCOCC2)c(=O)c2c(-n3cccc3)n(-c3ccc(Cl)cc3)nc12`, 704 s.
The molecule `Cc1nnc(N2CCCC(C(=O)NCc3cccs3)C2)c2nn(-c3ccccc3)c(C)c12` (stereo not drawn) had an RP-LC retention time of 702 s.
To `O=C(CCNNC(=O)c1ccncc1)NCc1ccccc1` belongs 636 s; to `CCn1c(N2CCC(C(=O)N3CCC(N4CCCCC4)CC3)CC2)cc(=O)n(C)c1=O`, 600 s; to `COc1cccc(Cn2cc(C(=O)c3cc(C)ccc3C)c(=O)c3ccc(C)nc32)c1`, 1060 s.
On to `O=C(NCc1cccs1)C1CCCN(c2nc3ccccc3n(Cc3ccccc3)c2=O)C1` (stereo not drawn), for which the RP-LC retention time stood at 1100 s.
As for `CC1(C(=O)Nc2ccc(F)c(F)c2)CCCCC(=O)N1` (stereo not drawn), the figure is 715 s.
For the molecule `Cc1ccc(-c2noc(Cn3c(=O)n(CCc4ccccc4)c(=O)c4sccc43)n2)cc1`, the RP-LC retention time worked out at 1170 s.
As for `Cc1ccccc1CNC(=O)C1(C)CCCN(S(=O)(=O)c2ccccc2)C1` (stereo not drawn), the figure is 944 s; as for `Cn1nc(C(=O)N2CCCC(C(=O)Nc3ccccc3)C2)c2c1CCN(C(=O)c1cccc(F)c1)C2` (stereo not drawn), 756 s; as for `Cc1nc(OCC(=O)Nc2ccccc2Br)c2ccccc2n1`, 745 s.
`CCOC(=O)C1=C(CN2CCN(c3ccccc3F)CC2)NC(=O)NC1c1cccc(OC)c1OC` (stereo not drawn): the RP-LC retention time was 730 s.
To `O=C(Cn1nc2c(Oc3cccc(F)c3)nccn2c1=O)Nc1ccc(F)cc1` belongs 849 s; to `CCn1nc2ccc(S(=O)(=O)N3CCOCC3)cn2c1=O`, 645 s.
Consider `CCN1CCN(CCNC(=O)c2ccc3nc(-c4ccc(Cl)cc4)cn3c2)CC1`, for which the RP-LC retention time was found to be 578 s.
`CCN(Cc1ccccc1)C(=O)Cn1cnc2onc(C)c2c1=O` had an RP-LC retention time of 802 s.
`O=C(Cc1csc(Nc2ncccn2)n1)Nc1ccc2c(c1)Cc1ccccc1-2` registered an RP-LC retention time of 845 s.
Molecule `COc1ccc(N2CC(NC(=O)c3ccc(S(=O)(=O)N(C)C)cc3)CC2=O)cc1OC` (stereo not drawn) registered an RP-LC retention time of 634 s.
As for `COc1ccc(Nc2c(-c3ccc(N(C)C)cc3)nc3cnccn23)cc1OC`, the figure is 687 s.
`CCCCN(C)C(=O)C1CCN(c2cncnc2N2CCCCC2)CC1` registered an RP-LC retention time of 661 s.
As for `NC(=O)C1CCN(C(=O)CCn2ccn3nc(-c4ccccc4)cc3c2=O)CC1`, the figure is 638 s; as for `Cc1ccc(CNC(=O)c2nnc(-c3ccc(S(=O)(=O)N4CCC(C)CC4)cc3)o2)o1`, 923 s.
To `O=C(NCc1ccccc1Br)c1ccc(-c2cncnc2)nc1` belongs 748 s; to `CCC1CN(C(=O)N2CCC(C(=O)NCCc3ccco3)CC2)c2cc(C)ccc2O1` (stereo not drawn), 706 s.
As for `COc1ccc(-c2nc3ccc(Cl)cn3c2Nc2ccc(C)cc2)cc1`, the RP-LC retention time was 838 s.
As for `Cc1ccc(-c2ncc(C(=O)Nc3cc(F)cc(F)c3)c(-c3ccncc3)n2)cc1`, the figure is 1060 s.
`O=c1ncn2nc(Sc3ccc(F)cc3F)ccc2c1-c1c(Cl)cccc1Cl` gave an RP-LC retention time of 894 s.
Take `O=C(NCCN1CCCCC1)c1ccc2c(=O)n(-c3ccccc3)c(N3CCCC3)nc2c1`: the RP-LC retention time was determined as 614 s.
In turn, `Cc1cc(C(=O)Nc2nc(-c3cccc(Cl)c3)c(C)s2)no1` had an RP-LC retention time of 1140 s.
